# According to article PMC3229200 (Bioorganic & medicinal chemistry, 2011):
# Tests used:
# σ2 receptor [1] = biological target: σ2 receptor (Homo sapiens, UniProt Q5BJF2); type: binding; details: 10 μM competing compound, 1 nM [125I]-IAF, RT4 cell membranes
# σ1 receptor = σ1 receptor (Homo sapiens, UniProt Q99720); type: binding; details: 10 μM competing compound, 1 nM [125I]-IAF, RT4 cell membranes
# σ2 receptor [2] = biological target: T1, σ2 receptor (Rattus norvegicus, UniProt Q5U3Y7); assay: Competitive σ2 receptor radioligand binding
# T1 sequence (Q5U3Y7 1-176): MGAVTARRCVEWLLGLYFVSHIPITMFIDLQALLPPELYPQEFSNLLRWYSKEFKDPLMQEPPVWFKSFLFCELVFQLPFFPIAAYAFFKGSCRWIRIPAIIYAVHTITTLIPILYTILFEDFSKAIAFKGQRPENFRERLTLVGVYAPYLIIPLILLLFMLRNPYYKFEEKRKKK
# Sequence of σ1 receptor (Q99720 whole entry): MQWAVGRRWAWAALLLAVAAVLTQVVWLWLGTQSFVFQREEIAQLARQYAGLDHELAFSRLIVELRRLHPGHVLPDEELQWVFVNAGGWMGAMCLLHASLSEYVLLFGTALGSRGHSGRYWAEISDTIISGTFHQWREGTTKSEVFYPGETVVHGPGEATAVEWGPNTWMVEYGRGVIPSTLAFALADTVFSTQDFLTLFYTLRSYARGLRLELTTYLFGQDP
# Sequence of σ2 receptor (Homo sapiens, UniProt Q5BJF2) (Q5BJF2 whole entry): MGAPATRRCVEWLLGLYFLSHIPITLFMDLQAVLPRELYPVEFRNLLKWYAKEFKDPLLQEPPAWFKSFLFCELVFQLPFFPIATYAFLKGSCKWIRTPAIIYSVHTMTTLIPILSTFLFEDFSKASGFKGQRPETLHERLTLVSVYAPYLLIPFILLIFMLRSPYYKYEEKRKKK
Structure (SMILES),Blocking of σ1 receptor photolabeling by [125I]-IAF (σ1 receptor),Selectivity for the σ2 over the σ1 receptor (σ2 receptor [2]),"Improvement of σ2 selectivity relative to the σ1 receptor, versus 5f (σ2 receptor [2]; 5e compared to 5f)",Increase of σ2 affinity versus 5f (σ2 receptor [2]; 5e compared to 5f),Increase of σ2 affinity in comparison to compound 5h (σ2 receptor [2]; 5g compared to 5h),Blocking of σ2 receptor photolabeling by [125I]-IAF (σ2 receptor [1])
"O=C1c2ccccc2C(=O)N1CCCCN1CCc2ccc([N+](=O)[O-])cc2C1 [Compound 3b, 2-(4-(7-Nitro-3,4-dihydroisoquinoline-2(1H)-yl)butyl)isoindoline-1,3-dione]",diminished both bands,–,–,–,–,diminished both bands
"COc1cccc(C(=O)NCCCCN2CCc3ccc([N+](=O)[O-])cc3C2)c1OC [Compound 5f, 2,3-Dimethoxy-N-(4-(7-nitro-3,4-dihydroisoquinoline-2(1H)-yl)butyl)benzamide]",did not block the labeling of either receptor,–,–,–,–,did not block the labeling of either receptor
"O=C(CCCN1CCC(O)(c2ccc(Cl)cc2)CC1)c1ccc(F)cc1 [haloperidol, reference compound]",–,–,–,–,–,blocked photolabeling

# Second part, led by results:
Blocking of σ1 receptor photolabeling by [125I]-IAF (σ1 receptor),Selectivity for the σ2 over the σ1 receptor (σ2 receptor [2]),"Improvement of σ2 selectivity relative to the σ1 receptor, versus 5f (σ2 receptor [2]; 5e compared to 5f)",Increase of σ2 affinity versus 5f (σ2 receptor [2]; 5e compared to 5f),Increase of σ2 affinity in comparison to compound 5h (σ2 receptor [2]; 5g compared to 5h),Structure (SMILES),Blocking of σ2 receptor photolabeling by [125I]-IAF (σ2 receptor [1])
left σ1 labeling essentially unaltered,~ 400 fold,631 fold,500 fold,–,"COc1ccc(C(=O)NCCCCN2CCc3ccc([N+](=O)[O-])cc3C2)c(OC)c1OC [Compound 5e, 2,3,4-Trimethoxy-N-(4-(7-nitro-3,4-dihydroisoquinoline-2(1H)-yl)butyl)benzamide]",eliminated σ2 labeling
–,–,–,–,4.5 fold,"COc1c(I)ccc(C(=O)NCCCCN2CCc3ccc([N+](=O)[O-])cc3C2)c1O [Compound 5g, 2-Hydroxy-4-iodo-3-methoxy-N-(4-(7-nitro-3,4-dihydroisoquinoline-2(1H)-yl)butyl)benzamide]",–
